The record followed here is US20090304692A1, “TRIAZINE COMPOUNDS AS PI3 KINASE AND MTOR INHIBITORS” (Wyeth, priority 2008, published 2009).

pIC50: −log10 of the molar value.

Test [1] deals with human prostate LNCap tumor cell line. In words: In vitro cell culture growth assay (MTS), LNCap. As to conditions: Homo sapiens, LNCaP, 72 h, read-out: IC50 LNCap.
For the next test, the target named is PI3K-γ (Homo sapiens, UniProt P48736). In words: PI3K-gamma fluorescence polarization assay. To be noted: read-out: IC50 PI3Kγ. (In general: Fluorescence polarisation rises when a labelled molecule tumbles more slowly, as on binding a larger partner.)
PI3K-γ, sequence (P48736 whole entry, species assumed): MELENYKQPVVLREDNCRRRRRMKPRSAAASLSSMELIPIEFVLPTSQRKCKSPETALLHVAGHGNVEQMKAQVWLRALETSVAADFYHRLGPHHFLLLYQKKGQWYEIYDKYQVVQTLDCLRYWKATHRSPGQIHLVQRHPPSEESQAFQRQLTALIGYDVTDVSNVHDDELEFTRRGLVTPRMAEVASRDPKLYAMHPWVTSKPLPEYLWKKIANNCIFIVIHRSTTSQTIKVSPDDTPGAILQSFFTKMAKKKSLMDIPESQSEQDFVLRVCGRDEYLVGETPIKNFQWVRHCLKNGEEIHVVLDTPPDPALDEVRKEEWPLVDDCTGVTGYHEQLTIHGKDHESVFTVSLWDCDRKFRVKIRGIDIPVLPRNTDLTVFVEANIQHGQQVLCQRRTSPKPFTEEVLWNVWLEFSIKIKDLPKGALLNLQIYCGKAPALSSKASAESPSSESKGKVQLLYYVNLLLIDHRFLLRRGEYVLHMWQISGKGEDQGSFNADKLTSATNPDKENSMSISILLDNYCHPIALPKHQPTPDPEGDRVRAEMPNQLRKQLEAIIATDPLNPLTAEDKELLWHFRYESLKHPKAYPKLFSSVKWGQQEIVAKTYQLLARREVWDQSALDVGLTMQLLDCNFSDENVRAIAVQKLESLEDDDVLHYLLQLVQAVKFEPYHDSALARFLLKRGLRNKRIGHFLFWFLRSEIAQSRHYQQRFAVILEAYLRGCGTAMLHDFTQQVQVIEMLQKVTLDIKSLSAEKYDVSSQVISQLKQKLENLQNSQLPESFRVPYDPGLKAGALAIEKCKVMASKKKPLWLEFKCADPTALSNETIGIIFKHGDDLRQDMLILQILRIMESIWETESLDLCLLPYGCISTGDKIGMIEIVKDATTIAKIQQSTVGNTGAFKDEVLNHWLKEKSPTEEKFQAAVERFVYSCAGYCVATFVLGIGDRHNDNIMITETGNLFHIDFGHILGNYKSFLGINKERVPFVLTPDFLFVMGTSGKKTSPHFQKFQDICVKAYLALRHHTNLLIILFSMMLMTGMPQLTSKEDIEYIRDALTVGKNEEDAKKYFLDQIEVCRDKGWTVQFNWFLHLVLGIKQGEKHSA
The next test deals with PI3K-α (Homo sapiens, UniProt P42336). Briefly: PI3K-alpha fluorescence polarization assay. To be noted: read-out: IC50 PI3Kα.
PI3K-α, sequence (P42336 whole entry, species assumed): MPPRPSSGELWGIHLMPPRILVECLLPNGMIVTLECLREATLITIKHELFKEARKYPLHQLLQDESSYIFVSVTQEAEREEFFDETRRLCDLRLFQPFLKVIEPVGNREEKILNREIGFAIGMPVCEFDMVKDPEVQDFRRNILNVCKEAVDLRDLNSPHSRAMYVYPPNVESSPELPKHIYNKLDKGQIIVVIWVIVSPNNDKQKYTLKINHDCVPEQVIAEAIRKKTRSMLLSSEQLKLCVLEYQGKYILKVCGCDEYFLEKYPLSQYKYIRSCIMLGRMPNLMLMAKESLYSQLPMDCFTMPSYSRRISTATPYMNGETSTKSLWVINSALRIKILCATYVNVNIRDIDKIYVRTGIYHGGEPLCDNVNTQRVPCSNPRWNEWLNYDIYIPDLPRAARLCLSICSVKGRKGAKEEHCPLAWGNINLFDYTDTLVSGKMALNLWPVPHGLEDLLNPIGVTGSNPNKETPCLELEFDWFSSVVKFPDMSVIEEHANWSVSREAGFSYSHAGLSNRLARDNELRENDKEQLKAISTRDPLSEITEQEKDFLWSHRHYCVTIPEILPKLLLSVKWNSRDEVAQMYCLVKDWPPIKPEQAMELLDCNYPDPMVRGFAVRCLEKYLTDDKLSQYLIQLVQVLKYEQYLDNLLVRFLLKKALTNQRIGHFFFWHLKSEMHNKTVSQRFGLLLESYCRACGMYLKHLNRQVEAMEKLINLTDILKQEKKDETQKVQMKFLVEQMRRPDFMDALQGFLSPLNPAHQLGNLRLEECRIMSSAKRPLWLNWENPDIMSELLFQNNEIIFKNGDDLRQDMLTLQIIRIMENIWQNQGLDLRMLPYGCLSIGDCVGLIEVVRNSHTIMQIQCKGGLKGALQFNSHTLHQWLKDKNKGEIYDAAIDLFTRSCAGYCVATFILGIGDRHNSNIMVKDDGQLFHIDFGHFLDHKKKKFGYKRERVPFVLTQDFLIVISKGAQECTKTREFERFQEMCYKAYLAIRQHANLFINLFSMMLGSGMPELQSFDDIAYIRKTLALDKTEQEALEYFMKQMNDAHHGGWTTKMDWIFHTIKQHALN
PI3K-α, sequence (P27986 whole entry partner, species assumed): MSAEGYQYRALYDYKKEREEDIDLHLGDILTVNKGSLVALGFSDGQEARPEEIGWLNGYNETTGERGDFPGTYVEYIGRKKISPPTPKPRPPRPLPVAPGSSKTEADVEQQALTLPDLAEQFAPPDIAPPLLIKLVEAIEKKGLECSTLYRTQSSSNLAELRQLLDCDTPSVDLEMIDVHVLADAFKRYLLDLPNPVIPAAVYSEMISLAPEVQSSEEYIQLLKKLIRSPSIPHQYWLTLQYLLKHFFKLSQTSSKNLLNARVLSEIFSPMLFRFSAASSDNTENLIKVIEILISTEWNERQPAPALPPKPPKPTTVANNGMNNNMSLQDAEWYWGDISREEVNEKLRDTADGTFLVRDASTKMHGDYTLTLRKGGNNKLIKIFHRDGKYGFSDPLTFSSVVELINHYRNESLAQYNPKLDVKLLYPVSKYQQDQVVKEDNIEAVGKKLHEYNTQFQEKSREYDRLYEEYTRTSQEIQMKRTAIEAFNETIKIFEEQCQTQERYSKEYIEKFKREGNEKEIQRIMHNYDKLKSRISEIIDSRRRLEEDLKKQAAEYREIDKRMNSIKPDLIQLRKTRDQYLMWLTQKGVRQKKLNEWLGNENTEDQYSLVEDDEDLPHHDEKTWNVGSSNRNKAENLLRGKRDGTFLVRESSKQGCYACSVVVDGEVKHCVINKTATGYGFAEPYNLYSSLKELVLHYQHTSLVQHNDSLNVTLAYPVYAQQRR
The target in another test is Human mTOR (FLAG-TOR) (Homo sapiens, UniProt P42345). In words: mTOR kinase assay (DELFIA format, purified enzyme). It counts as biochemical. As to conditions: read-out: IC50 mTOR.
Human mTOR (FLAG-TOR), sequence (P42345 1360-2549 limits assumed): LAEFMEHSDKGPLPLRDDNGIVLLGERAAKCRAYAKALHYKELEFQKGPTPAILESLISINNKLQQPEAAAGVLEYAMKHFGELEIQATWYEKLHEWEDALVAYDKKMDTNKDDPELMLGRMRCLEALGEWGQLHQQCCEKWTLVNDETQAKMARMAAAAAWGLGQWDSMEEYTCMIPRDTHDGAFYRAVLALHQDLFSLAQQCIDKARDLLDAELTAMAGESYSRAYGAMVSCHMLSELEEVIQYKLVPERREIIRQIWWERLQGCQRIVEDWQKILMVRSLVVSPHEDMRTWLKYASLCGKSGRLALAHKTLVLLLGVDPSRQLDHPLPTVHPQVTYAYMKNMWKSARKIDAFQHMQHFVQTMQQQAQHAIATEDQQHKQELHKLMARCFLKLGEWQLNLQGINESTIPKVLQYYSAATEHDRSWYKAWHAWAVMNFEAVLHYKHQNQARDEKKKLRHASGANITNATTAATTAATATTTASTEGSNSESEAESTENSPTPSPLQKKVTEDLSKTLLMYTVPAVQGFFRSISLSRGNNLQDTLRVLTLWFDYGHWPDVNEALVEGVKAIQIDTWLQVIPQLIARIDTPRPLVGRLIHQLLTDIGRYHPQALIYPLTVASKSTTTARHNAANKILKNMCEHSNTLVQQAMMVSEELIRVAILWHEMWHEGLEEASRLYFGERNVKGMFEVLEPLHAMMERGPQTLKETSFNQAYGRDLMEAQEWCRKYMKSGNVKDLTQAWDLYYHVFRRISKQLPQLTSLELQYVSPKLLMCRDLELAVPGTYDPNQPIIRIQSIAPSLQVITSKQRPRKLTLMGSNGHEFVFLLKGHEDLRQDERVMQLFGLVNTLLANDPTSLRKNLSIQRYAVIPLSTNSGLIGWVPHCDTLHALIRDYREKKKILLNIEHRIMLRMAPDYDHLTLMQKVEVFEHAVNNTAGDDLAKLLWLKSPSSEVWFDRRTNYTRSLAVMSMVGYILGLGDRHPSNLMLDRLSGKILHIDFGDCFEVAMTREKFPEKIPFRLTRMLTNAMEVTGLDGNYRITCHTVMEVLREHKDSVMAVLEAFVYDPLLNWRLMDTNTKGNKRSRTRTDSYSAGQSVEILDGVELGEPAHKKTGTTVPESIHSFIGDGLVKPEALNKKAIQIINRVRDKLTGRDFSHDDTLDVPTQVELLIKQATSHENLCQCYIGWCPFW

A word on the pIC50: it is the IC50 on a negative log10 scale, so that one unit is a factor of ten.

Take `CC(C)(C)OC(=O)N1CCN(c2nc(-c3ccc(NC(=O)Nc4ccncc4)cc3)nc(N3CC4CCC(C3)O4)n2)CC1` [Example 106, Tert-butyl 4-(4-(8-oxa-3-azabicyclo[3.2.1]octan-3-yl)-6-(4-(3-pyridin-4-ylureido)phenyl)-1,3,5-triazin-2-yl)piperazine-1-carboxylate]: the negative-log IC50 (pIC50) in test [1] was 6.43; on PI3K-γ, 5.74; on PI3K-α, 6.41; on Human mTOR (FLAG-TOR), 8.12.
On to `O=C(Nc1ccncc1)Nc1ccc(-c2nc(N3CCNCC3)nc(N3CC4CCC(C3)O4)n2)cc1` [Example 107, 1-(4-(4-(8-oxa-3-azabicyclo[3.2.1]octan-3-yl)-6-(piperazin-1-yl)-1,3,5-triazin-2-yl)phenyl)-3-(pyridin-4-yl)urea], for which the pIC50 in test [1] is 6.00; on PI3K-γ, 5.83; at PI3K-α, 6.94; on Human mTOR (FLAG-TOR), 7.72.
The matching figures for `CN1CCN(c2nc(-c3ccc(NC(=O)Nc4ccncc4)cc3)nc(N3CC4CCC(C3)O4)n2)CC1` [Example 108, 1-{4-[4-(4-methylpiperazin-1-yl)-6-(8-oxa-3-azabicyclo[3.2.1]oct-3-yl)-1,3,5-triazin-2-yl]phenyl}-3-pyridin-4-ylurea]: 6.49, 5.38, 6.23 and 7.72.
On the same counts, the results for `O=C(Nc1ccncc1)Nc1ccc(-c2nc(N3CCN(Cc4ccccc4)CC3)nc(N3CC4CCC(C3)O4)n2)cc1` [Example 109, 1-{4-[4-(4-benzylpiperazin-1-yl)-6-(8-oxa-3-azabicyclo[3.2.1]oct-3-yl)-1,3,5-triazin-2-yl]phenyl}-3-pyridin-4-ylurea] are 5.72, 5.53, 5.84 and 7.13.
On the same counts, the results for `O=C(Nc1ccncc1)Nc1ccc(-c2nc(N3CCN(Cc4cccnc4)CC3)nc(N3CC4CCC(C3)O4)n2)cc1` [Example 110, 1-(4-{4-(8-oxa-3-azabicyclo[3.2.1]oct-3-yl)-6-[4-(pyridin-3-ylmethyl)piperazin-1-yl]-1,3,5-triazin-2-yl}phenyl)-3-pyridin-4-ylurea] are 6.66, 5.45, 6.05 and 7.54.
With `CC(=O)N1CCN(c2nc(-c3ccc(NC(=O)Nc4ccncc4)cc3)nc(N3CC4CCC(C3)O4)n2)CC1` [Example 111, 1-{4-[4-(4-acetylpiperazin-1-yl)-6-(8-oxa-3-azabicyclo[3.2.1]oct-3-yl)-1,3,5-triazin-2-yl]phenyl}-3-pyridin-4-ylurea], the pIC50 in test [1] is 7.24; on PI3K-γ it was 5.74; on PI3K-α it was 6.94; on Human mTOR (FLAG-TOR) it was 8.64.
Regarding `CN(C)CC(=O)N1CCN(c2nc(-c3ccc(NC(=O)Nc4ccncc4)cc3)nc(N3CC4CCC(C3)O4)n2)CC1` [Example 112, 1-(4-{4-[4-(N,N-dimethylglycyl)piperazin-1-yl]-6-(8-oxa-3-azabicyclo[3.2.1]oct-3-yl)-1,3,5-triazin-2-yl}phenyl)-3-pyridin-4-ylurea], the negative-log IC50 (pIC50) was 6.52 in test [1], 6.11 at PI3K-γ, 6.31 on PI3K-α and 7.92 on Human mTOR (FLAG-TOR).
On the same counts, the results for `COC(=O)N1CCN(c2nc(-c3ccc(NC(=O)Nc4ccncc4)cc3)nc(N3CC4CCC(C3)O4)n2)CC1` [Example 114, Methyl 4-[4-(8-oxa-3-azabicyclo[3.2.1]oct-3-yl)-6-{4-[(pyridin-4-ylcarbamoyl)amino]phenyl}-1,3,5-triazin-2-yl]piperazine-1-carboxylate] are 7.42, 5.93, 6.97 and 8.50.
The matching figures for `O=C1CCN(c2nc(-c3ccc(NC(=O)Nc4ccncc4)cc3)nc(N3CC4CCC(C3)O4)n2)CC1` [Example 115, 1-(4-(4-(8-oxa-3-azabicyclo[3.2.1]octan-3-yl)-6-(4-oxopiperidin-1-yl)-1,3,5-triazin-2-yl)phenyl)-3-(pyridin-4-yl)urea]: 6.70, 5.70, 6.96 and 8.49.
On the same counts, the results for `O=C(Nc1ccncc1)Nc1ccc(-c2nc(N3CCC(O)CC3)nc(N3CC4CCC(C3)O4)n2)cc1` [Example 116, 1-{4-[4-(4-hydroxypiperidin-1-yl)-6-(8-oxa-3-azabicyclo[3.2.1]oct-3-yl)-1,3,5-triazin-2-yl]phenyl}-3-pyridin-4-ylurea] are 7.15, 5.64, 5.76 and 8.57.
As to `O=C(Nc1ccncc1)Nc1ccc(-c2nc(N3CCC(NCc4ccccc4)CC3)nc(N3CC4CCC(C3)O4)n2)cc1` [Example 117, 1-(4-{4-[4-(benzylamino)piperidin-1-yl]-6-(8-oxa-3-azabicyclo[3.2.1]oct-3-yl)-1,3,5-triazin-2-yl}phenyl)-3-pyridin-4-ylurea], the pIC50 in test [1] is 6.15; at PI3K-γ, 5.52; on PI3K-α, 6.75; on Human mTOR (FLAG-TOR) it was 7.08.
On the same counts, the results for `CNC1CCN(c2nc(-c3ccc(NC(=O)Nc4ccncc4)cc3)nc(N3CC4CCC(C3)O4)n2)CC1` [Example 118, 1-(4-{4-[4-(methylamino)piperidin-1-yl]-6-(8-oxa-3-azabicyclo[3.2.1]oct-3-yl)-1,3,5-triazin-2-yl}phenyl)-3-pyridin-4-ylurea] are 5.52, 6.53, 6.42 and 6.71.
Turning to `CCNC1CCN(c2nc(-c3ccc(NC(=O)Nc4ccncc4)cc3)nc(N3CC4CCC(C3)O4)n2)CC1` [Example 119, 1-(4-{4-[4-(ethylamino)piperidin-1-yl]-6-(8-oxa-3-azabicyclo[3.2.1]oct-3-yl)-1,3,5-triazin-2-yl}phenyl)-3-pyridin-4-ylurea], the pIC50 is 5.55 in test [1], 5.12 at PI3K-γ, 5.91 at PI3K-α and 6.85 at Human mTOR (FLAG-TOR).
The matching figures for `CN(C)CCNC1CCN(c2nc(-c3ccc(NC(=O)Nc4ccncc4)cc3)nc(N3CC4CCC(C3)O4)n2)CC1` [Example 120, 1-{4-[4-(4-{[2-(dimethylamino)ethyl]amino}piperidin-1-yl)-6-(8-oxa-3-azabicyclo[3.2.1]oct-3-yl)-1,3,5-triazin-2-yl]phenyl}-3-pyridin-4-ylurea]: 5.92, 5.81, 6.58 and 7.10.
On the same counts, the results for `CN1CCN(C2CCN(c3nc(-c4ccc(NC(=O)Nc5ccncc5)cc4)nc(N4CC5CCC(C4)O5)n3)CC2)CC1` [Example 122, 1-(4-(4-(8-oxa-3-azabicyclo[3.2.1]octan-3-yl)-6-(4-(4-methylpiperazin-1-yl)piperidin-1-yl)-1,3,5-triazin-2-yl)phenyl)-3-(pyridin-4-yl)urea] are 6.05, 5.02, 5.94 and 7.13.
On the same counts, the results for `O=C(Nc1ccncc1)Nc1ccc(-c2nc(N3CCC(NCCO)CC3)nc(N3CC4CCC(C3)O4)n2)cc1` [Example 123, 1-(4-(4-(8-oxa-3-azabicyclo[3.2.1]octan-3-yl)-6-(4-(2-hydroxyethylamino)piperidin-1-yl)-1,3,5-triazin-2-yl)phenyl)-3-(pyridin-4-yl)urea] are 5.39, 5.20, 6.12 and 6.94.
Regarding `O=C(Nc1ccncc1)Nc1ccc(-c2nc(N3CCC(NCCN4CCOCC4)CC3)nc(N3CC4CCC(C3)O4)n2)cc1` [Example 124, 1-(4-(4-(8-oxa-3-azabicyclo[3.2.1]octan-3-yl)-6-(4-(2-morpholinoethylamino)piperidin-1-yl)-1,3,5-triazin-2-yl)phenyl)-3-(pyridin-4-yl)urea], the pIC50 in test [1] is 5.71; on PI3K-γ, 5.02; at PI3K-α, 5.78; at Human mTOR (FLAG-TOR), 6.81.
On to `COC(=O)CNC1CCN(c2nc(-c3ccc(NC(=O)Nc4ccncc4)cc3)nc(N3CC4CCC(C3)O4)n2)CC1` [Example 125, Methyl 2-(1-(4-(8-oxa-3-azabicyclo[3.2.1]octan-3-yl)-6-(4-(3-pyridin-4-ylureido)phenyl)-1,3,5-triazin-2-yl)piperidin-4-ylamino)acetate], for which the pIC50 in test [1] is 6.00; at PI3K-γ, 5.06; at PI3K-α, 6.08; at Human mTOR (FLAG-TOR), 7.80.
The matching figures for `NC(=O)CNC1CCN(c2nc(-c3ccc(NC(=O)Nc4ccncc4)cc3)nc(N3CC4CCC(C3)O4)n2)CC1` [Example 126, 2-(1-(4-(8-oxa-3-azabicyclo[3.2.1]octan-3-yl)-6-(4-(3-pyridin-4-ylureido)phenyl)-1,3,5-triazin-2-yl)piperidin-4-ylamino)acetamide]: 5.89, 5.26, 6.29 and 7.71.
On the same counts, the results for `CC(C)(C)OC(=O)CNC1CCN(c2nc(-c3ccc(NC(=O)Nc4ccncc4)cc3)nc(N3CC4CCC(C3)O4)n2)CC1` [Example 127, Tert-butyl 2-(1-(4-(8-oxa-3-azabicyclo[3.2.1]octan-3-yl)-6-(4-(3-pyridin-4-ylureido)phenyl)-1,3,5-triazin-2-yl)piperidin-4-ylamino)acetate] are 5.87, 5.33, 5.86 and 7.29.
